According to PMC12508063, “Chloroindazole based estrogen receptor β ligands with favorable pharmacokinetics promote functional remyelination and visual recovery” (Scientific Reports, 2025):
Several values for one entry are separate records, joined by “and”; a condition that tells them apart may be missing. Identical values can stand only once. Like-named read-outs stand apart in the source and are kept apart here.

Experiments:
[1] = tested on: EAE mice; experiment: Electroretinogram (ERG) in EAE; assay type: in vivo, mouse; conditions: for ERG A-wave and B-wave amplitude: vs vehicle-treated mice
Description: (§1) Optical coherence tomography, electroretinograms and visual evoked potentials: OCT was acquired using the spectral domain‐OCT (R2200 840 nm HHP; Leica, Deerfield, IL) at peak EAE disease according to previously published methods[23],[28]. Each image was taken 3 times and averaged. Automatic segmentation of retinal layers was performed using Bioptigen Diver 3.0 software (Leica Microsystems, Deerfield, IL). ERG and VEPs were measured using the HMsERG200 ([…], Henderson, NV) as previously described[23],[28]. Animals were dark adapted for a minimum of 5 h prior to recording. During acquisition, animals were anesthetized with continuous 2% isoflurane. Traces were averaged and filtered for 60 Hz noise and a low-pass filter. MATLAB was used to adjust baselines and smoothed prior to measuring ERG and VEP amplitudes and latencies.
(§2) Electroretinograms and visual evoked potentials were measured using the HMsERG200 (OcuScience, Henderson, NV) as previously described (8, 9). Animals were dark adapted for a minimum of 5 hours prior to recording. During acquisition, animals were anesthetized with continuous 2% isoflurane. Traces were averaged and filtered for 60 Hz noise and a low-pass filter. MATLAB was used to adjust baselines and smoothed prior to measuring ERG and VEP amplitudes and latencies.

[2] = Stability in human plasma; assay type: in vitro ADME
[3] = biological target: T1, full length purified human ERα (Homo sapiens, UniProt P03372); experiment: competitive ligand binding assay, tritiated estradiol as tracer
T1 construct: full length purified human ERα and ERβ
T1 sequence (P03372 whole entry): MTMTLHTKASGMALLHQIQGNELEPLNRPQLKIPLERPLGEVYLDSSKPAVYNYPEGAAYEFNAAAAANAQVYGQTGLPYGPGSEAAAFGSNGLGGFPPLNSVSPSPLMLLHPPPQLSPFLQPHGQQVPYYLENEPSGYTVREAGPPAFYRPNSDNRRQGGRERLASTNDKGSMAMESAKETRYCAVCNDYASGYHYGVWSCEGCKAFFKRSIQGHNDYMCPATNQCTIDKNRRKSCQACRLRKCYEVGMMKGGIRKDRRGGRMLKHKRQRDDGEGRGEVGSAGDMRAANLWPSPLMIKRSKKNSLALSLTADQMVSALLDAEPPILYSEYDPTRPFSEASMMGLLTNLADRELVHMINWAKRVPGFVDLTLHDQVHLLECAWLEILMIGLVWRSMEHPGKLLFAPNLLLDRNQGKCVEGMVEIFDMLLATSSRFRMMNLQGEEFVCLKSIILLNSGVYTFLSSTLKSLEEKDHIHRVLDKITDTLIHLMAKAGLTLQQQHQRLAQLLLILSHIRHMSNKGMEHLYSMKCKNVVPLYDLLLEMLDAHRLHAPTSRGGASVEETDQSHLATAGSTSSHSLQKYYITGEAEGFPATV

[4] = biological target: T2, full length purified human ERβ (Homo sapiens, UniProt Q92731); experiment: as above; conditions: for RBA β/α ratio: ERβ/ERα relative affinity ratio
T2 construct: full length purified human ERα and ERβ
T2 sequence (Q92731 whole entry): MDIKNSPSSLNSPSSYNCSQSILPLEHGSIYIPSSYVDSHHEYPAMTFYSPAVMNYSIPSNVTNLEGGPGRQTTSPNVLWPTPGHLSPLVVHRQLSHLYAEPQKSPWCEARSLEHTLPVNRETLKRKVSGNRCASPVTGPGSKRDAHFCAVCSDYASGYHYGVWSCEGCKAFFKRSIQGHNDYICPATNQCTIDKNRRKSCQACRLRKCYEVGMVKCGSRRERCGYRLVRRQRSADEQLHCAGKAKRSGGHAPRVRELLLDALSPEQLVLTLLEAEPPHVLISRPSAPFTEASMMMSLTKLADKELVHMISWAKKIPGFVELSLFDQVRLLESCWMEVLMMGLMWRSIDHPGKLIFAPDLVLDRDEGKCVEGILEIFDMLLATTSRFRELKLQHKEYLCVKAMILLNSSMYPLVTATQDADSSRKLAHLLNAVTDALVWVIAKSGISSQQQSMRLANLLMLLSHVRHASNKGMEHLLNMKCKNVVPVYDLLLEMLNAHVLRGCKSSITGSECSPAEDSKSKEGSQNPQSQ

[5] = tested on: CPZ demyelinating model of MS; experiment: Cuprizone (CPZ) diet demyelination/remyelination model, corpus callosum IHC; conditions: for CC1 + OLs compared to RM + V / CD45 immunoreactivity compared to 12wkDM / GFAP expression / myelin (MBP, PLP, and MOG staining) compared to RM + V: corpus callosum, 5 mg/kg/day, 3 wk
Description: CPZ administration and treatment: Mice were fed a diet containing 0.2% bis(cyclohexanone)oxaldihydrazone (CPZ, Teklad Custom Diets, Madison, WI) for 12 weeks, as previously described[15],[27]. A subset of mice was perfused immediately following the 12-week CPZ regimen (12wkDM). […] These mice were perfused and their brains were processed for IHC.

[6] = tested on: co-cultures of primary cortical neurons and OPCs; experiment: Axon myelination in co-cultures of primary cortical neurons and OPCs; assay type: cell-based, mouse; conditions: K102, K110 10 nM; Clemastine, Bazedoxifene 500 nM; 5 days
Description: Mouse and Human primary cell cultures: Primary OPC/OL culture were isolated from the cortices of postnatal day 0–1 C57BL/6J mice of both sexes, using established protocols[11],[20],[21]. Mouse OPC and Neuronal Co-cultures: Primary neuronal cultures were established in Neurobasal medium with B27 and plated on poly-L-lysine-coated coverslips. After 12 days, OPCs were isolated, counted, and added to neuronal cultures and media was replaced with neuronal and proliferation media for 3 days, then switched to maturation media that maintained both neurons and OLs. Human iPSC-derived OPCs (Tempo’s iOligo™) were expanded, cryopreserved, and later plated on Matrigel-coated coverslips. After 3 days in growth medium, cells were treated for 3 weeks with T3 containing maturation medium. Differentiation into myelin-producing OLs was assessed using O4 (OL surface marker on pre-OLs) and myelin basic protein (MBP) immunohistochemistry. […]
Immunocytochemistry and Image Analysis of cell cultures: After treatment, cells were fixed and stained for MBP and DAPI. […] Cell densities were quantified using ImageJ and normalized to control conditions. MBP-positive cells, their process extensions, and highly branched OLs were counted to assess differentiation. Co-culture images were analyzed for MBP and β3-tubulin colocalization using JACoP[22] in ImageJ, with results validated by manual quantification. […]

[7] = tested on: EAE mice; experiment: Rotarod motor performance in EAE; assay type: in vivo, mouse; conditions: 5 mg/kg SC
Description: EAE induction and treatment: EAE was induced in 8–10-week-old wild-type C57BL/6J mice using MOG₃₅-₅₅ peptide[11],[14],[23]–[25]. Mice were scored daily using a standard clinical scale (0–5) and tested for their ability to stay on a rotarod. […] At peak disease (18–22 days post-immunization), animals were grouped into EAE+Vehicle, EAE+K102, and EAE+K110.
Rotarod Motor Performance: Mice cages were moved to the behavioral room 1 hour prior to testing. Motor performance was assessed using the Rotarod apparatus (Med Associates, Inc., St. Albans, VT) as previously performed with modifications(5, 6). Briefly, mice were placed on the rotating horizontal rod set to a speed of 3 – 30 rpm for a maximum of 300 seconds. The amount of time the mouse was able to walk on the accelerating rod was recorded. Each mouse was tested in three trials separated by 15 minute intertrial intervals. The average of the three trials was reported as a single value for each mouse. Statistical analysis was performed in GraphPad Prism 10 software using Mann-Whitney test.

[8] = Uterine weight and body weight in EAE mice; conditions: for Body weight / Uterine weight / Uterine weight/body weight ratio: EAE mice; for uterine weight relative to body weight: normal or EAE intact female mice
Description: The animals from Hook EAE experiment Figure 3Bii were used. […] (S6ii) The weight of the uteri removed from mice relative to total body weight along with the raw uterine weight and body weight at the end of this experiment is plotted.

[9] = for Kp uu Brain Mean / Kp uu Uterus Mean: 40 mg/kg PO; for K p,uu,brain Cmax: single dose oral PK in mouse at 40 mg/kg
Description: Plasma samples were 100% plasma or 5-fold diluted plasma; brain homogenate samples were diluted 5-fold with buffer, while uterus homogenate samples were initially diluted 5-fold and then further diluted to 20-fold. Equilibrium dialysis was performed in a 96-well plate system with wells containing 80 µL of buffer and 80 µL of the sample on opposite sides of the membrane. After incubation at 37°C for 5 hours with shaking at 180 rpm, aliquots were collected from both sides of the membrane for further analysis.
For plasma samples, 50 µL of sample was mixed with 50 µL of phosphate buffer, followed by addition of 300 µL quenching solution containing internal standards and DMSO. For 5-fold diluted plasma samples, 35 µL of sample was mixed with 35 µL of blank buffer, followed by 280 µL quenching solution. For tissue homogenate samples, 50 µL samples were mixed with 50 µL of phosphate buffer, followed by 200 µL quenching solution. All samples were vortexed for 1 minute, and centrifuged at 4,000 rpm for 15 minutes, and the supernatant collected for LC-MS/MS analysis, which was performed using an API 5500 mass spectrometer with an ACQUITY UPLC BEH 1.7 μm C18 100 Å column (2.1 mm * 50 mm) and ACE Excel 5 C4 (2.1 * 50 mm) column. Mobile phases were 0.1% formic acid in water or 5 mM NH4OAc with 0.05% formic acid in water (A) and 0.1% formic acid in acetonitrile (B). Run times were 8 minutes for plasma samples and 5 minutes for other sample types. The mass spectrometer was operated in positive electrospray ionization mode.
Free fraction (fu) and recovery were calculated using specific equations for each sample type. For plasma samples, fu (%) was calculated as (Cbuffer / Cplasma) * 100%, and recovery (%) as ((Cplasma + Cbuffer) / T0) * 100%. For 5-fold diluted plasma samples, fu,20% (%) was calculated as (Cbuffer / Cplasma) * 100%, and fu,100% (%) as fu,20% / (5 - 4 * fu,20%) * 100%. Similar equations were used for uterus and brain samples, accounting for their respective dilution factors. These calculations allowed for the determination of the free fraction of the test compound in various tissue compartments and the assessment of recovery rates.

[10] = tested on: primary mouse OPCs; experiment: OL differentiation in primary mouse OPC culture (MBP, DAPI); assay type: cell-based; conditions: for MBP+ OLs vs vehicle-treated wells: 10 nM; for number of MBP+ cells vs vehicle: 10 nM and 100 nM, concentration-dependent
Description: Mouse and Human primary cell cultures: Primary OPC/OL culture were isolated from the cortices of postnatal day 0–1 C57BL/6J mice of both sexes, using established protocols[11],[20],[21]. Mouse OPC and Neuronal Co-cultures: Primary neuronal cultures were established in Neurobasal medium with B27 and plated on poly-L-lysine-coated coverslips. After 12 days, OPCs were isolated, counted, and added to neuronal cultures and media was replaced with neuronal and proliferation media for 3 days, then switched to maturation media that maintained both neurons and OLs. Human iPSC-derived OPCs (Tempo’s iOligo™) were expanded, cryopreserved, and later plated on Matrigel-coated coverslips. After 3 days in growth medium, cells were treated for 3 weeks with T3 containing maturation medium. Differentiation into myelin-producing OLs was assessed using O4 (OL surface marker on pre-OLs) and myelin basic protein (MBP) immunohistochemistry. In all conditions compounds or vehicle were added to culture during differentiation for either 5 days (mouse) or 18 days (human).
Immunocytochemistry and Image Analysis of cell cultures: After treatment, cells were fixed and stained for MBP and DAPI. Coverslips were imaged using a confocal microscope at 10× and 40× objectives. Cell densities were quantified using ImageJ and normalized to control conditions. MBP-positive cells, their process extensions, and highly branched OLs were counted to assess differentiation. Co-culture images were analyzed for MBP and β3-tubulin colocalization using JACoP[22] in ImageJ, with results validated by manual quantification.
Primary OL Progenitor cells (OPC) and Neuronal Cultures: OPC and cortical neuronal cultures were prepared from the cortices of postnatal day P0-P1 C57BL/6J mice of both sexes, following established protocols (1, 2);(3). The single-cell suspension was divided into two tubes. One tube was treated with warm Neuronal Basal media, counted, and plated onto poly-L-lysine (PLL)-coated glass coverslips. The second tube was resuspended in glial growth medium, composed of DMEM-F12 supplemented with 10% fetal bovine serum, and placed in a PLL-coated culture flask for 8–10 days until confluent. Primary OPCs were then isolated by shaking and either co-cultured with primary neurons or plated onto poly-D-lysine-coated glass coverslips (three coverslips per condition, 2x10^6 cells per coverslip). The OPCs were allowed to attach for three days, followed by five days in differentiating media (DMEM-F12 with Sato media containing triiodothyronine and thyroxine) supplemented with various analogues and remyelinating compounds. For comparison, a negative control (vehicle, consisting of the media and ethanol mixture used to dissolve the analogues and remyelinating compounds) and a normal control (differentiating media alone) were included in the experiments.
Quantification of Mature OLs and Co-culture axon myelination: At the conclusion of the treatment period, cells were fixed and subjected to immunocytochemistry to evaluate myelin basic protein (MBP) expression, co-stained with the nuclear marker DAPI (shown in blue). […] Cell counting was performed using the ImageJ multipoint tool, and cell densities were calculated by dividing the counts by the image area (mm²). […]
To assess OL differentiation, the number of MBP-positive (MBP+) cells and process extensions exceeding the diameter of the cell body were quantified.

[11] = biological target: CYP3A4 (Homo sapiens, UniProt P08684); experiment: CYP inhibition (midazolam and testosterone substrates); conditions: test compounds at 10 μM; for CYP Inhibition Percentage CYP3A4-M: substrate Midazolam
Sequence of CYP3A4 (P08684 whole entry): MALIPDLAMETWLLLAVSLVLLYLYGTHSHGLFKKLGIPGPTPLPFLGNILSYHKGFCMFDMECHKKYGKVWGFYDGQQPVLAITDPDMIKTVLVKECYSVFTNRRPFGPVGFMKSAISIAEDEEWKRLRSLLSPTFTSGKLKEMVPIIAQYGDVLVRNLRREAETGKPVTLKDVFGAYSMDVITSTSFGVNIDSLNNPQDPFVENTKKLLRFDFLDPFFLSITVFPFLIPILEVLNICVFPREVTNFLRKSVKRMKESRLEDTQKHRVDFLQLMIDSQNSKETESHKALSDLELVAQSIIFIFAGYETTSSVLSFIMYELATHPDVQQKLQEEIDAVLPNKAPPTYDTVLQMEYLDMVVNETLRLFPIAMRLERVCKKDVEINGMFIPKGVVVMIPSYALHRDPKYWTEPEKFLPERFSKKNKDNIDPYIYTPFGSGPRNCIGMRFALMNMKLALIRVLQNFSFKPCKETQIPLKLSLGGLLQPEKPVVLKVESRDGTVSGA

[12] = tested on: splenocytes from EAE mice; experiment: Splenocyte cytokine/chemokine analysis ex vivo (MOG35-55 stimulation); assay type: in vivo, mouse; conditions: K102 5 or 30 mg/kg, K110 10 or 30 mg/kg; 40 dpi
Description: Splenocyte Isolation and Cytokine Analysis: Spleens were collected from mice prior to transcardial perfusion, and splenocytes were isolated, counted, and resuspended in RPMI medium. After 1 h incubation, cells were stimulated with 25 µg/mL MOG₃₅-₅₅, and supernatants were collected 48 h later. Cytokine and chemokine levels in the supernatants, including pro- and anti-inflammatory markers as well as chemokines were analyzed by The Cytokine Core (Indianapolis, IN).
In MS and EAE, peripherally activated immune cells release inflammatory cytokines and chemokines, triggering demyelination and axonal damage. To examine how different concentrations of K102 (5 mg/kg or 30 mg/kg) (Fig. 4A) and K110 (10 mg/kg or 30 mg/kg) (Fig. 4B) influence the peripheral immune response, splenocytes were isolated from EAE mice at 40 dpi. These splenocytes were then stimulated ex vivo with MOG35-55 and analyzed for cytokine and chemokine expression.
Splenocyte Isolation and Cytokine Analysis: Spleens were removed from mice prior to transcardial perfusion. After isolation, splenocytes were counted and resuspended in RPMI. Following incubation, splenocytes were stimulated with 25 µg/ml MOG35–55 and supernatants were collected 48 hours later. Levels of the following cytokines and chemokines present in culture supernatants were sent to The Cytokine Core (Indianapolis, IN); pro-inflammatory cytokines: IFNγ, Tumor necrosis factor (TNF)α, IL-1α, IL-1β, IL-3, IL-6, IL9, IL17, Vascular endothelial growth factor (VEGF), CCL5/RANTES and macrophage colony-stimulating factor (M-CSF); anti-inflammatory cytokines: IL-5 and IL-10; chemokines: CXCL10, and CXCL1 were determined.

[13] = tested on: EAE mice; experiment: Visual evoked potential (VEP) in EAE; assay type: in vivo, mouse; conditions: vs vehicle-treated
Description: as §1, §2

[14] = relative binding affinity, estradiol = 100

For `Cc1cc(O)ccc1-n1nc2ccc(O)cc2c1Cl` [Compound K102, IndCl-o-Me], the “ERG B-wave latency” value [1] was “improved”, the “ERG A-wave and B-wave amplitude” value [1] was “significant increase” and the “% Remaining at 6 hr in Human Plasma” value [2] was 89.39%. For the same molecule, the “RBA ERα” value [3] was 0.37, the “RBA ERβ” value [4] was 24.0 and the “RBA β/α ratio” value [4] was 65. For the same molecule, the “RM/N (remyelination with cpd. vs. normal)” value ([5]; PO) was 76%, the “RM/RM-V (remyelination with cpd. vs. spontaneous remyelination without cpd)” value ([5]; PO) was 121% and the “RM/N (remyelination with cpd. vs. normal)” value ([5]; SC, 5 mg/kg) was 94%. The “RM/RM-V (remyelination with cpd. vs. spontaneous remyelination without cpd)” value ([5]; SC, 5 mg/kg) was 149%, the “CC1 + OLs compared to RM + V” value [5] was “further increase” and the “CD45 immunoreactivity compared to 12wkDM” value [5] was “small but significant decrease”. The GFAP expression [5] was “remained unchanged”, the “myelin (MBP, PLP, and MOG staining) compared to RM + V” value [5] was “significant increase” and the “OL processes wrapping axons” value [6] was “significant increase”. For the same molecule, the “ability to remain on the rotarod” value [7] was “non-significant improvement”, the Body weight ([8]; group average) was 20.124 and the Uterine weight ([8]; group average) was 0.055. The “Uterine weight/body weight ratio” value ([8]; group average) was 0.275, the Body weight ([8]; individual animals) was 19.160 and 19.460 and 20.910 and 21.110 and 19.980 and the Uterine weight ([8]; individual animals) was 0.0650 and 0.0330 and 0.0810 and 0.0490. The “Uterine weight/body weight ratio” value ([8]; individual animals) was 0.3392 and 0.1696 and 0.3874 and 0.2321 and 0.2452, the “uterine weight relative to body weight” value [8] was “no increase” and the “Kp uu Brain Mean” value ([9]; 0.5 hr) was 0.581. The “Kp uu Uterus Mean” value ([9]; 0.5 hr) was 0.269, the “Kp uu Brain Mean” value ([9]; 2.0 hr) was 0.333 and the “Kp uu Uterus Mean” value ([9]; 2.0 hr) was 0.380. The “Kp uu Brain Mean” value ([9]; 4.0 hr) was 0.629, the “Kp uu Uterus Mean” value ([9]; 4.0 hr) was 8.681 and the “Kp uu Brain Mean” value ([9]; 8.0 hr) was 0.325. For the same molecule, the “Kp uu Uterus Mean” value ([9]; 8.0 hr) was 3.086, the “K p,uu,brain Cmax” value [9] was 0.63 and the “MBP+ OLs vs vehicle-treated wells” value [10] was “significant increase”. For the same molecule, the “number of MBP+ cells vs vehicle” value [10] was “significantly increased”, the “CYP Inhibition Percentage CYP3A4-M” value [11] was 50.95% and the “CYP Inhibition Percentage CYP3A4-T” value ([11]; substrate Testosterone, 10 µM) was 77% and 76.99%. For the same molecule, the CXCL1 production [12] was “did not affect”, the “CXCL10 levels compared to vehicle” value [12] was “reduced” and the “certain anti-inflammatory cytokines compared to vehicle” value [12] was “significantly lower”. The “pro-inflammatory cytokine levels compared to vehicle” value [12] was “reduced”, the “VEP P1 (or N2) amplitude” value [13] was “significant increase” and the “VEP P1 latency” value [13] was “reduction”.

For `Oc1ccc(-n2nc3ccc(O)cc3c2Cl)c(O)c1` [Compound K110, IndCl-o-OH], the “ERG B-wave latency” value [1] was “improved”, the “ERG A-wave and B-wave amplitude” value [1] was “significant increase” and the “% Remaining at 6 hr in Human Plasma” value [2] was 105.99%. For the same molecule, the “RBA ERα” value [3, 14] was 0.09, the “RBA β/α ratio” value [4] was 48 and the “RBA ERβ” value [4, 14] was 4.35. The “RM/N (remyelination with cpd. vs. normal)” value ([5]; PO) was 100%, the “RM/RM-V (remyelination with cpd. vs. spontaneous remyelination without cpd)” value ([5]; PO) was 127% and the “RM/N (remyelination with cpd. vs. normal)” value ([5]; SC, 5 mg/kg) was 84%. The “RM/RM-V (remyelination with cpd. vs. spontaneous remyelination without cpd)” value ([5]; SC, 5 mg/kg) was 133%, the “CC1 + OLs compared to RM + V” value [5] was “further increase” and the “CD45 immunoreactivity compared to 12wkDM” value [5] was “small but significant decrease”. The GFAP expression [5] was “remained unchanged”, the “myelin (MBP, PLP, and MOG staining) compared to RM + V” value [5] was “significant increase” and the “OL processes wrapping axons” value [6] was “significant increase”. For the same molecule, the “ability to remain on the rotarod” value [7] was “non-significant improvement”, the Body weight ([8]; group average) was 15.27 and the Uterine weight ([8]; group average) was 0.04. For the same molecule, the “Uterine weight/body weight ratio” value ([8]; group average) was 0.26, the Body weight ([8]; individual animals) was 14.58 and 15.48 and 15.50 and 14.68 and 16.10 and the Uterine weight ([8]; individual animals) was 0.044 and 0.027 and 0.034 and 0.056. The “Uterine weight/body weight ratio” value ([8]; individual animals) was 0.3018 and 0.1744 and 0.2194 and 0.3815 and 0.2112, the “uterine weight relative to body weight” value [8] was “no increase” and the “Kp uu Brain Mean” value ([9]; 0.5 hr) was 0.232. For the same molecule, the “Kp uu Uterus Mean” value ([9]; 0.5 hr) was 0.516, the “Kp uu Brain Mean” value ([9]; 2.0 hr) was 0.802 and the “Kp uu Uterus Mean” value ([9]; 2.0 hr) was 10.651. The “Kp uu Brain Mean” value ([9]; 4.0 hr) was 0.280, the “Kp uu Uterus Mean” value ([9]; 4.0 hr) was 45.849 and the “Kp uu Brain Mean” value ([9]; 8.0 hr) was 0.294. The “Kp uu Uterus Mean” value ([9]; 8.0 hr) was 6.280, the “K p,uu,brain Cmax” value ([9]; 40 mg/kg) was 0.8 and the “MBP+ OLs vs vehicle-treated wells” value [10] was “significant increase”. For the same molecule, the “number of MBP+ cells vs vehicle” value [10] was “significantly increased”, the “CYP Inhibition Percentage CYP3A4-M” value [11] was 13.95% and the CXCL1 production [12] was “did not affect”. For the same molecule, the “CXCL10 levels compared to vehicle” value [12] was “reduced”, the “certain anti-inflammatory cytokines compared to vehicle” value [12] was “significantly lower” and the “pro-inflammatory cytokine levels compared to vehicle” value [12] was “reduced”. For the same molecule, the “VEP P1 (or N2) amplitude” value [13] was “did not affect” and the “VEP P1 latency” value [13] was “did reduce”.
